Measured values reported in BindingDB's records for patent US9365558 (Bristol Myers Squibb, 2016).

Biological target: 2-acylglycerol O-acyltransferase 2 (Homo sapiens, UniProt Q3SYC2)
Assay: LCMS Assay
Settings: pH 7.4; 65 °C
Experimental: The MGAT enzyme reactions were performed in Corning FALCON® 96-well Polypropylene plates, in a total volume of 60 μL of 50 mM Potassium Phosphate buffer pH 7.4, containing a final concentration of 100 μM 2-oleoylglycerol, 15 μM oleoyl-Coenzyme A and 0.0013 μg/μL Human or Mouse MGAT-2 or 0.0026 μg/μL Rat recombinant MGAT-2 membranes expressed in Sf9 cells. Assay plates were run through a fully automated robotics system and shaken for 5 seconds every minute for a total 10 minutes. The reactions were then quenched with 120 μL of ice cold methanol containing 1 μg/mL 1,2-distearoyl-rac-glycerol as the internal standard. Plates were shaken for 2 minutes and spun down to remove protein precipitation. After the spin, samples were transferred to LC/MS compatible PCR plates. For LC/MS analysis, a ThermoFisher Surveyor pump, utilizing a Waters Symmetry C8, 50×2.1 mm column, was used for the chromatography of enzyme products. The buffer system consists of 0.1% formic acid in water with a mobile phase consisting 0.1% formic acid in methanol. The shallow gradient is 90-100% mobile phase in 0.2 min with a total run time of 2.3 min. The first 0.5 minutes of each injection was diverted to waste to eliminate the presence of Phosphate buffer in the enzymatic reaction. The column was run at 0.6 mL/min and a temperature of 65° C.

Sequence of 2-acylglycerol O-acyltransferase 2 (Q3SYC2 whole entry): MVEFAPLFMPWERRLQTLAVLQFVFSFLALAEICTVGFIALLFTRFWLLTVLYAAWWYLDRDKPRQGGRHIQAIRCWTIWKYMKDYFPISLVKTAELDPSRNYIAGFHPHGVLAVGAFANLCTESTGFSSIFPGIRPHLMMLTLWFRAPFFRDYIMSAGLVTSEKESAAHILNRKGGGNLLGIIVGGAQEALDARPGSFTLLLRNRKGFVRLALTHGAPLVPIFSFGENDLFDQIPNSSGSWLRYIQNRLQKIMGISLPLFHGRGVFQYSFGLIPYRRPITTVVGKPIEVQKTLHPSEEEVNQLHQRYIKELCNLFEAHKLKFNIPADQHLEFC

Compound	IC50 [nM]
Cc1ccc(C2=C(C(=O)NS(=O)(=O)N(C)C)C(=O)N[C@@](c3ccc(OCCCC(F)(F)F)cc3)(C(F)(F)F)C2)cc1 [US9365558, 31]	38
CC(C)(C)n1ccc(C2=C(C(=O)NS(=O)(=O)C3CC3)C(=O)N[C@@](c3ccc(OCCCCCC(F)(F)F)cc3)(C(F)(F)F)C2)n1 [US9365558, 80]	40
